# Paper PMC6813931, “Choline Kinase Emerges as a Promising Drug Target in Gram-Positive Bacteria” (Frontiers in Microbiology, 2019)
# Key:
# [1] = target: T1, sChoK (S. pneumoniae isoform of choline kinase, LicA) (Streptococcus pneumoniae, UniProt Q8DPI4); assay: colorimetric ChoK activity assay in cell extracts; format: biochemical
# T1 construct: gene pck; ChoK activity measured in cell extracts
# T1 sequence (Q8DPI4 1-289): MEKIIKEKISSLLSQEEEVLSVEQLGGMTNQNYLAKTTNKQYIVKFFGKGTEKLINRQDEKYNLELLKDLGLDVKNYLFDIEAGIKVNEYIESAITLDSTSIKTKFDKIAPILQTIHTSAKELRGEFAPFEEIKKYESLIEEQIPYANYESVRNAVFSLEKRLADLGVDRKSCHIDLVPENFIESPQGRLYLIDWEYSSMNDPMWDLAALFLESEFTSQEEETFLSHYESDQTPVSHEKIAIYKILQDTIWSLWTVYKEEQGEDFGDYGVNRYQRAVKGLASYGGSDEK
# Source text: colorimetric ChoK activity assay in cell extracts on sChoK (S. pneumoniae isoform of choline kinase, LicA)
# [2] = target: T1, sChoK (S. pneumoniae isoform of choline kinase, LicA); assay: sChoK activity inhibition (authors' earlier work); format: biochemical; details: authors' own earlier result (Zimmerman and Ibrahim 2017), restated here; cited from earlier work
# Source text: sChoK activity inhibition (authors' earlier work) on sChoK (S. pneumoniae isoform of choline kinase, LicA)
SMILES,IC50 [1] [µM],IC50 [2] [mM]
CN(c1ccc(Cl)cc1)c1cc[n+](Cc2ccc(-c3ccc(C[n+]4ccc(N(C)c5ccc(Cl)cc5)c5ccccc54)cc3)cc2)c2ccccc12 [RSM-932A],0.5,
C[N+]1(C)CCOC(O)(c2ccc(-c3ccc(C4(O)C[N+](C)(C)CCO4)cc3)cc2)C1 (stereo not drawn) [HC-3],,> 2.7
CN(C)c1cc[n+](Cc2ccc(CCCCc3ccc(C[n+]4ccc(N(C)C)cc4)cc3)cc2)cc1 [MN58b],197,
